# Measured values: US20230116972A1, “CD38 MODULATORS AND METHODS OF USE THEREOF” (Cytokinetics, Inc., priority 2021, published 2023)
# Columns and labels:
# human CD38 = biological target: T1, human CD38 (Homo sapiens, UniProt P28907); experiment: human recombinant CD38 enzyme assay (hydrolysis of NAD+); format: biochemical; conditions: human recombinant CD38, 0.4 nM enzyme, 62.5 μM NAD+; read-out: hCD38 BioChem IC50
# T1 sequence (P28907 1-300): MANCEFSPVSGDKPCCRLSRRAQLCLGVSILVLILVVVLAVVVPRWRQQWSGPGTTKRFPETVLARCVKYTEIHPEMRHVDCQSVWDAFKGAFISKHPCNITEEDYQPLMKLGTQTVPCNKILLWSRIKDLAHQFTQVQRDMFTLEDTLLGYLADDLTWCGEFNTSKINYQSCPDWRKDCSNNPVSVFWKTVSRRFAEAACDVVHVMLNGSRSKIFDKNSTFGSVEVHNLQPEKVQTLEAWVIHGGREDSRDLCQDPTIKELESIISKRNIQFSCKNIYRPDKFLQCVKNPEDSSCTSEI
# Outline: (§1)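 Recombinant human or mouse CD38 hydrolyzing NAD+ in a cell-free buffered system. Dose-responses were run for 60 min at ambient temperature. Remaining NAD+ was converted to NADH by alcohol dehydrogenase, which drove diaphorase reduction of resazurin to resorufin, read at 540/590 nm.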
# mouse CD38 = biological target: T2, mouse CD38 (Mus musculus, UniProt P56528); experiment: mouse recombinant CD38 enzyme assay (hydrolysis of NAD+); format: biochemical; conditions: read-out: mCD38 BioChem IC50
# T2 sequence (P56528 1-304): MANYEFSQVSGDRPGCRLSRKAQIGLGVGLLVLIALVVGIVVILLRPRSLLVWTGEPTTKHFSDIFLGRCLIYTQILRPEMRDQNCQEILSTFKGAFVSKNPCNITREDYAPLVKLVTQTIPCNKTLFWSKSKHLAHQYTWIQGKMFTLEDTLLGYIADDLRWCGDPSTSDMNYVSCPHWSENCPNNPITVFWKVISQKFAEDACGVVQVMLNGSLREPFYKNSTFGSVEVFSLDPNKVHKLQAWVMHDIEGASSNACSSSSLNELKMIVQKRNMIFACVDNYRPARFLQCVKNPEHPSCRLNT
# Outline: as §1
# [1] = biological target: T3, endogenous CD38 in HL60 cells (Homo sapiens, UniProt P28907); experiment: cellular CD38 assay in HL60 cells (cellular NAD levels); format: cell-based; conditions: all-trans retinoic acid, 24 hours, read-out: hCD38 HL60 ATRA NAD Cell Diaphorase IC50
# T3 construct: endogenous in cells; host or cells: HL60 (leukemic cells, treated with all-trans retinoic acid)
# T3 sequence (P28907 1-300): T1 sequence (P28907 1-300)
# Outline: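 HL60 cells (20000/well) were treated with compound in DMSO for 24 h. Cellular NAD was then measured by an enzymatic cycling mix (alcohol dehydrogenase, diaphorase, 40 uM resazurin, 10 uM FMN, 3% ethanol, Triton X-100, pH 8.4).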
Compound,IC50 (human CD38) [nM],IC50 (mouse CD38) [nM],IC50 [1] [nM]
"C[C@H]1CC[C@H](NC(=O)c2cncc(-n3ccnc3)n2)CC1 [Compound 102, 6-(1H-imidazol-1-yl)-N-((1r,4r)-4-methylcyclohexyl)pyrazine-2-carboxamide]",23,7,1010
"O=C(NC1CC2(C1)CC(F)(F)C2)c1cncc(-n2ccnc2)n1 [Compound 103, N-(6,6-difluorospiro[3.3]heptan-2-yl)-6-(1H-imidazol-1-yl)pyrazine-2-carboxamide]",146,30,1620
"Cn1cncc1-c1cncc(C(=O)N[C@H]2CC[C@H](C)CC2)n1 [Compound 104, 6-(1-methyl-1H-imidazol-5-yl)-N-((1r,4r)-4-methylcyclohexyl)pyrazine-2-carboxamide]",24,10,1360
"Cn1cncc1-c1cncc(C(=O)NC2CC3(C2)CC(F)(F)C3)n1 [Compound 105, N-(6,6-difluorospiro[3.3]heptan-2-yl)-6-(1-methyl-1H-imidazol-5-yl)pyrazine-2-carboxamide]",80,24,1670
"COC(=O)[C@H]1CC[C@H](NC(=O)c2ccnc(-n3ccnc3)n2)CC1 [Compound 106, methyl (1r,4r)-4-(2-(1H-imidazol-1-yl)pyrimidine-4-carboxamido)cyclohexane-1-carboxylate]",22,9,1800
"COC(=O)[C@H]1CC[C@H](NC(=O)c2ccnc(-c3cncn3C)n2)CC1 [Compound 107, methyl (1r,4r)-4-(2-(1-methyl-1H-imidazol-5-yl)pyrimidine-4-carboxamido)cyclohexane-1-carboxylate]",9,2,1290
"O=C(Nc1ccc(C(F)F)nc1)c1cc(C2CC2)nc(-c2cncs2)n1 [Compound 110, 6-cyclopropyl-N-(6-(difluoromethyl)pyridin-3-yl)-2-(thiazol-5-yl)pyrimidine-4-carboxamide]",108,20,2550
"CO[C@H]1CC[C@H](NC(=O)c2cc(C(F)(F)F)nc(-n3ccnc3)n2)CC1 [Compound 111, 2-(1H-imidazol-1-yl)-N-((1r,4r)-4-methoxycyclohexyl)-6-(trifluoromethyl)pyrimidine-4-carboxamide]",129,38,5490
"O=C(Nc1ccc(C(F)F)nc1)c1ccnc(-c2cncs2)n1 [Compound 114, N-(6-(difluoromethyl)pyridin-3-yl)-2-(thiazol-5-yl)pyrimidine-4-carboxamide]",173,150,4330
"O=C(Nc1ccc(C(F)F)nc1)c1cc(C(F)(F)F)nc(-c2cncs2)n1 [Compound 116, N-(6-(difluoromethyl)pyridin-3-yl)-2-(thiazol-5-yl)-6-(trifluoromethyl)pyrimidine-4-carboxamide]",507,185,8160
"Cc1cc(C(=O)Nc2ccc(C(F)(F)F)nc2)nc(-n2ccnc2)n1 [Compound 117, 2-(1H-imidazol-1-yl)-6-methyl-N-(6-(trifluoromethyl)pyridin-3-yl)pyrimidine-4-carboxamide]",4,1,350
"CO[C@H]1CC[C@H](NC(=O)c2cc(C)nc(-n3ccnc3)n2)CC1 [Compound 118, 2-(1H-imidazol-1-yl)-N-((1r,4r)-4-methoxycyclohexyl)-6-methylpyrimidine-4-carboxamide]",17,3,1620
"Cc1cc(C(=O)N[C@H]2CC[C@H](C)CC2)nc(-n2ccnc2)n1 [Compound 119, 2-(1H-imidazol-1-yl)-6-methyl-N-((1r,4r)-4-methylcyclohexyl)pyrimidine-4-carboxamide]",10,1,1580
"Cc1cc(C(=O)N[C@H]2CC[C@H](C(F)F)CC2)nc(-n2ccnc2)n1 [Compound 120, N-((1r,4r)-4-(difluoromethyl)cyclohexyl)-2-(1H-imidazol-1-yl)-6-methylpyrimidine-4-carboxamide]",10,2,1130
"CO[C@H]1CC[C@H](NC(=O)c2cc(C)nc(-c3cncn3C)n2)CC1 [Compound 121, N-((1r,4r)-4-methoxycyclohexyl)-6-methyl-2-(1-methyl-1H-imidazol-5-yl)pyrimidine-4-carboxamide]",14,1,1050
"Cc1cc(C(=O)N[C@H]2CC[C@H](C(F)F)CC2)nc(-c2cncn2C)n1 [Compound 122, N-((1r,4r)-4-(difluoromethyl)cyclohexyl)-6-methyl-2-(1-methyl-1H-imidazol-5-yl)pyrimidine-4-carboxamide]",10,1,1010
"Cc1cc(C(=O)N[C@H]2CC[C@H](C)CC2)nc(-c2cncn2C)n1 [Compound 123, 6-methyl-2-(1-methyl-1H-imidazol-5-yl)-N-((1r,4r)-4-methylcyclohexyl)pyrimidine-4-carboxamide]",10,1,952
"Cc1cc(C(=O)NC2CC3(C2)CC(F)(F)C3)nc(-c2cncn2C)n1 [Compound 124, N-(6,6-difluorospiro[3.3]heptan-2-yl)-6-methyl-2-(1-methyl-1H-imidazol-5-yl)pyrimidine-4-carboxamide]",17,1,1400
"COc1cc(C(=O)N[C@H]2CC[C@H](OC)CC2)nc(-n2ccnc2)n1 [Compound 125, 2-(1H-imidazol-1-yl)-6-methoxy-N-((1r,4r)-4-methoxycyclohexyl)pyrimidine-4-carboxamide]",19,4,2480
"COc1cc(C(=O)Nc2ccc(C(F)F)nc2)nc(-n2ccnc2)n1 [Compound 127, N-(6-(difluoromethyl)pyridin-3-yl)-2-(1H-imidazol-1-yl)-6-methoxypyrimidine-4-carboxamide]",2,2,335
"COc1cc(C(=O)N[C@H]2CC[C@H](OC)CC2)nc(-c2cncn2C)n1 [Compound 128, 6-methoxy-N-((1r,4r)-4-methoxycyclohexyl)-2-(1-methyl-1H-imidazol-5-yl)pyrimidine-4-carboxamide]",9,1,928
"COc1cc(C(=O)Nc2ccc(C(F)F)nc2)nc(-c2cncn2C)n1 [Compound 129, N-(6-(difluoromethyl)pyridin-3-yl)-6-methoxy-2-(1-methyl-1H-imidazol-5-yl)pyrimidine-4-carboxamide]",2,1,267
"COc1cc(C(=O)N[C@H]2CC[C@H](OC)CC2)nc(-c2cncs2)n1 [Compound 130, 6-methoxy-N-((1r,4r)-4-methoxycyclohexyl)-2-(thiazol-5-yl)pyrimidine-4-carboxamide]",488,44,10300
"COc1cc(C(=O)Nc2ccc(C(F)F)nc2)nc(-c2cncs2)n1 [Compound 131, N-(6-(difluoromethyl)pyridin-3-yl)-6-methoxy-2-(thiazol-5-yl)pyrimidine-4-carboxamide]",66,23,2910
